How the values were obtained:
F11 cells = experiment: Cell viability assay in F11 neuronal cells; details: 24 h, 5–60 µM
Procedure: For the subsequent experiments, DF2726A was used at a final concentration of 1 µM, and oxaliplatin at a final concentration of 20 µM. For comparison, paclitaxel alone or in combination with DF2726A was also used.
F11 hybridoma cells (ECACC 08062601), chosen as a model of DRG neurons[22],[32],[33] were cultivated in DMEM (Euroclone, Milan, Italy) supplemented with 10% FBS (Sigma-Aldrich, St. Louis, MO, USA), 1% penicillin/streptomycin (Euroclone, MI, Italy) and 1% glutamine (Euroclone) at 37 °C, in humidified 95% air with 5% CO2 atmosphere. For all the experiments, cells were used at 18th passage.
Supplementary Fig. 2: Effect of DF2726A, oxaliplatin and paclitaxel treatment on neuronal cell
viability. Cell viability assay of F11 cells after treatment at different concentrations of DF 2726A
(DF; 1-20 µM), oxaliplatin (OXA, 5-60 µM), paclitaxel (PAC, 5-20 nM) and the combination of 20
µM oxaliplatin+DF2726A (Oxa+DF) and paclitaxel+DF2726A (PAC+DF) at 24 h. Data are means

[1] = design: method as in PMID 28423567; details: p.o. administration ref 22; cited from earlier work

Row | SMILES | Neuronal cell viability (F11 cells) | half-life [1] [h]
1 | O=C1[O][Pt]2([NH][C@@H]3CCCC[C@H]3[NH]2)[O]C1=O [oxaliplatin, reference compound] | ineffective in modulating neuronal cell viability | –
2 | CC(C)Cc1ccc([C@@H](C)C(=O)NS(C)(=O)=O)cc1 [reparixin] | – | 1.78
